≈ marks a conversion by molar mass, not a printed value.
Tests used:
[1] = Half life of the compound in human liver microsomes in presence of NADPH by LC-MS/MS analysis; format: ADME, Microsome
[2] = Cytotoxicity against human NHDF cells deficient of IRF3 assessed as reduction in cell viability incubated for 72 hrs by CellTiter Glo luminescence assay; format: toxicity, cell-based
[3] = Half life of the compound in mouse liver microsomes in presence of NADPH by LC-MS/MS analysis; format: ADME, Microsome
[4] = Octanol/PBS buffer distribution coefficient, logD of the compound at pH 7.5 by LC-MS analysis; format: physicochemical
Chikungunya virus [5] = test: Antiviral activity against Chikungunya virus 181/25 infected in human NHDF cells assessed as log reduction of virus titer at 10 uM treated with cells at 1 hr prior to infection and measured at 24 hrs post-infection by plaque assay; format: functional; details: time 25 hrs
[6] = Kinetic solubility of the compound in simulated intestinal fluid at pH 7.5 by LC-MS analysis; format: physicochemical; details: read-out: Kinetic_solubility
[7] = Cytotoxicity against African green monkey VeroE6 cells assessed as reduction in cell viability incubated for 72 hrs by CellTiter Glo luminescence analysis; format: toxicity, cell-based, Vero C1008; details: chlorocebus sabaeus
Chikungunya virus [8] = test: Antiviral activity against Chikungunya virus Sri Lanka strain infected in African green monkey Vero E6 cells assessed as inhibition of virus-induced cytopathic effect incubated for 72 hrs by CellTiter Glo luminescence assay; format: functional, organism-based; details: Vero C1008, 72 h
Chikungunya virus [9] = test: Antiviral activity against Chikungunya virus 181/25 infected in human NHDF cells assessed as reduction of virus titer treated with cells at 1 hr prior to infection and measured at 24 hrs post-infection by plaque assay; format: functional, organism-based; details: 181/25, NHDF; for EC90: time 25 hrs
[10] = Cytotoxicity against human NHDF cells assessed as reduction in cell viability incubated for 24 hrs by CellTiter Glo luminescence assay; format: toxicity, cell-based
Chikungunya virus [11] = test: Antiviral activity against Chikungunya virus infected in human NHDF cells assessed as inhibition of viral production by NanoLuc reporter assay; format: functional, organism-based
dengue virus type 2 [12] = test: Antiviral activity against Dengue virus 2 NGC infected in human HEK293 cells assessed as reduction of virus load measured at 3 days post-infection by focus-forming assay; format: functional; details: HEK293, 72 h, time 3 day
Zika virus [13] = test: Antiviral activity against Zika virus PRABC59 infected in human HEK293 cells assessed as log reduction of virus titer at 10 uM measured at 3 days post-infection by focus-forming assay; format: functional; details: time 3 day
[14] = system: Venezuelan equine encephalitis virus; test: Antiviral activity against VEEV TC-83 infected in human NHDF cells assessed as log reduction of virus titer at 10 uM treated with cells at 1 hr prior to infection and measured at 24 hrs post-infection by plaque assay; format: functional; details: time 25 hrs
Zika virus [15] = test: Antiviral activity against Zika virus PRABC59 infected in human HEK293 cells assessed as reduction of virus load measured at 3 days post-infection by focus-forming assay; format: functional; details: PRABC59, HEK293, 72 h, time 3 day
[16] = system: Venezuelan equine encephalitis virus; test: Antiviral activity against VEEV TC-83 infected in human NHDF cells assessed as reduction of virus titer treated with cells at 1 hr prior to infection and measured at 24 hrs post-infection by plaque assay; format: functional; details: TC-83, NHDF, time 25 hrs
West Nile virus [17] = test: Antiviral activity against West Nile virus NY99 infected in human HEK293 cells assessed as reduction of virus load measured at 3 days post-infection by focus-forming assay; format: functional; details: NY99, HEK293, 72 h, time 3 day
West Nile virus [18] = test: Antiviral activity against West Nile virus NY99 infected in human HEK293 cells assessed as log reduction of virus titer at 10 uM measured at 3 days post-infection by focus-forming assay; format: functional; details: time 3 day
dengue virus type 2 [19] = test: Antiviral activity against Dengue virus 2 NGC infected in human HEK293 cells assessed as log reduction of virus titer at 10 uM measured at 3 days post-infection by focus-forming assay; format: functional; details: time 3 day
[20] = Cytotoxicity against human HEK293 cells; format: toxicity, cell-based

SMILES	half-life [1]	CC50 at 72 h [2]	half-life [3]	logD [4]	log(activity) (Chikungunya virus [5])	solubility kinetic [6]	EC90 (Chikungunya virus [9])	also measured
CSc1ncccc1C(=O)Nc1nc(-c2cc(F)cc(-c3ccc(C#N)cc3)c2)cs1	53 min	> 30 µM	123 min	> 4.09	6.1	< 1 µM	–	–
CSc1ncccc1C(=O)Nc1nc(-c2cccc(-c3ccc(C#N)cc3)c2)cs1	39 min	> 30 µM	57 min	> 4.66	4.7	< 1 µM	–	–
CSc1ncccc1C(=O)Nc1nc(-c2ccc3ccccc3c2)cs1	35 min	> 40 µM	27 min	4.8	6.9	< 1 µM	0.93 µM	CC50 at 72 h [7]: 107 µM; EC50 (Chikungunya virus [8]): 4.5 µM; EC50 (Chikungunya virus [9]): 4.7 µM; CC50 at 24 h [10]: 132 µM; EC50 (Chikungunya virus [11]): 1.06 µM
CSc1ncccc1C(=O)Nc1nc(-c2cccc(-c3ccccn3)c2)cs1	15 min	> 30 µM	8 min	> 3.83	4	< 1 µM	0.7 µM	–
O=C(Nc1nc(-c2ccc3ccccc3c2)cs1)c1cc(F)c(O)c(F)c1	137 min	20 µM	36 min	> 3.45	7.6	< 1 µM	2.9 µM	–
CC(C)(C)c1ccc(C(=O)Nc2nc(-c3ccc4ccccc4c3)cs2)cc1	49 min	> 30 µM	8 min	> 3.32	4.3	< 1 µM	0.1 µM	–
CSc1ncccc1C(=O)Nc1nc(-c2cccc(-c3ccccc3)c2)cs1	34 min	> 30 µM	51 min	> 4.15	7.8	< 1 µM	–	–
CSc1ncccc1C(=O)Nc1nc(-c2ccc3ncccc3c2)cs1	17 min	18 µM	13 min	3.8	1.2	56 µM (≈ 21.2 µg/mL)	7.9 µM	–
CSc1ncccc1C(=O)Nc1nc(-c2cccc(-c3ccc(C#N)cn3)c2)cs1	25 min	> 30 µM	34 min	> 3.97	6	< 1 µM	–	–
CSc1ncccc1C(=O)Nc1nc(-c2cccc(N3CCNCC3)c2)cs1	> 300 min	> 30 µM	211 min	1.8	8.7	59 µM (≈ 24.3 µg/mL)	–	–
CSc1ncccc1C(=O)Nc1nc(-c2cccc(-c3cccc(C#N)c3)c2)cs1	21 min	> 30 µM	31 min	3	5.3	< 1 µM	0.1 µM	EC90 (dengue virus type 2 [12]): 0.3 µM; log(activity) (Zika virus [13]): 3.5; log(activity) [14]: 5.2; EC90 (Zika virus [15]): 0.3 µM; EC90 [16]: 0.35 µM; EC90 (West Nile virus [17]): 1.5 µM; CC50 at 24 h [10]: > 30 µM; log(activity) (West Nile virus [18]): 2.7; log(activity) (dengue virus type 2 [19]): 2.9; CC50 [20]: > 30 µM
CC(C)(C(=O)O)c1ccc(C(=O)Nc2nc(-c3ccc4ccccc4c3)cs2)cc1	292 min	> 30 µM	213 min	2.1	0	64 µM (≈ 26.7 µg/mL)	–	–
CSc1ncccc1C(=O)Nc1nc(-c2cc(C(=O)O)cc(-c3ccc(C#N)cc3)c2)cs1	> 300 min	> 40 µM	> 300 min	1.9	0	< 1 µM	–	–
COc1cc(Nc2cccc(-c3csc(NC(=O)c4cccnc4SC)n3)c2)ccc1C#N	25 min	> 30 µM	34 min	> 4.33	5.1	< 1 µM	–	EC90 (dengue virus type 2 [12]): 0.4 µM; log(activity) (Zika virus [13]): 3; log(activity) [14]: 2; EC90 (Zika virus [15]): 0.5 µM; EC90 [16]: 0.21 µM; EC90 (West Nile virus [17]): 1.2 µM; CC50 at 24 h [10]: > 30 µM; log(activity) (West Nile virus [18]): 2.9; log(activity) (dengue virus type 2 [19]): 3; CC50 [20]: > 30 µM
CSc1ncccc1C(=O)Nc1nc(-c2cccc(Nc3ccc(C#N)c(O)c3)c2)cs1	43 min	15.9 µM	35 min	> 3.46	1.2	1 µM (≈ 0.46 µg/mL)	10.1 µM	–
CSc1ncccc1C(=O)Nc1nc(-c2cccc(Nc3ccc(C#N)c(C(=O)O)c3)c2)cs1	145 min	> 40 µM	72 min	1.4	0.15	84 µM (≈ 41 µg/mL)	> 40 µM	–
CSc1ncccc1C(=O)Nc1nc(-c2cccc(Nc3ccc(CN)cc3)c2)cs1	37 min	15.4 µM	234 min	2.2	1.2	33 µM (≈ 14.8 µg/mL)	9.8 µM	–
CSc1ncccc1C(=O)Nc1nc(-c2cccc(Nc3cccc(C#N)c3)c2)cs1	25 min	> 30 µM	33 min	> 3.54	5.7	< 1 µM	–	EC90 (dengue virus type 2 [12]): 0.5 µM; log(activity) (Zika virus [13]): 3.4; log(activity) [14]: 7.3; EC90 (Zika virus [15]): 0.4 µM; EC90 [16]: 0.6 µM; EC90 (West Nile virus [17]): 1.1 µM; CC50 at 24 h [10]: > 30 µM; log(activity) (West Nile virus [18]): 4.3; log(activity) (dengue virus type 2 [19]): 3.7; CC50 [20]: > 30 µM
CSc1ncccc1C(=O)Nc1nc(-c2cc(Nc3ccc(C#N)cc3)cc(N3CCOCC3)c2)cs1	15 min	> 40 µM	64 min	> 3.92	5.1	< 1 µM	0.1 µM	EC90 (dengue virus type 2 [12]): 1.8 µM; log(activity) (Zika virus [13]): 1.7; log(activity) [14]: 3.81; EC90 (Zika virus [15]): 0.8 µM; EC90 [16]: 0.45 µM; EC90 (West Nile virus [17]): 24 µM; CC50 at 24 h [10]: > 30 µM; log(activity) (dengue virus type 2 [19]): 1.9; CC50 [20]: > 30 µM
Cc1ncccc1C(=O)Nc1nc(-c2ccc3ccccc3c2)cs1	26 min	> 30 µM	26 min	> 4.27	1.9	3 µM (≈ 1.04 µg/mL)	3.2 µM	–
CCOC(=O)N1CCN(c2cc(-c3ccc(C#N)cc3)cc(-c3csc(NC(=O)c4cccnc4SC)n3)c2)CC1	21 min	> 40 µM	63 min	> 3.99	8.1	< 1 µM	0.02 µM	EC90 (dengue virus type 2 [12]): 0.3 µM; log(activity) (Zika virus [13]): 3.5; log(activity) [14]: 4.9; EC90 (Zika virus [15]): 0.15 µM; EC90 [16]: 0.02 µM; EC90 (West Nile virus [17]): 0.15 µM; CC50 at 24 h [10]: > 30 µM; log(activity) (West Nile virus [18]): 4; log(activity) (dengue virus type 2 [19]): 3.3; CC50 [20]: > 30 µM
CC(C)(C)c1ncc(C(=O)Nc2nc(-c3ccc4ccccc4c3)cs2)s1	51 min	> 30 µM	9 min	> 3.03	7.5	< 1 µM	3.5 µM	–
CSc1ncccc1C(=O)Nc1nc(-c2cccc(-c3ccc(C#N)c(O)c3)c2)cs1	43 min	> 30 µM	49 min	> 3.91	8.5	3 µM (≈ 1.33 µg/mL)	–	–
CSc1ncccc1C(=O)Nc1nc(-c2cc(-c3ccc(C#N)cc3)ccc2F)cs1	85 min	> 30 µM	69 min	2	5.8	< 1 µM	–	–
CC(C)(C#N)c1ccc(C(=O)Nc2nc(-c3ccc4ccccc4c3)cs2)cc1	98 min	> 30 µM	129 min	> 3.85	2.6	< 1 µM	1.5 µM	–
CSc1ncccc1C(=O)Nc1nc(-c2cccc(Nc3ccc(C#N)cn3)c2)cs1	19 min	40 µM	17 min	–	2.2	< 1 µM	4.8 µM	–

Source: ChEMBL document CHEMBL6074675, “4-Substituted-2-Thiazole Amides as Viral Replication Inhibitors of Alphaviruses” (J Med Chem, 2024)
